System: HCT116 colorectal cancer cells
Assay: Cisplatin sensitization assay (96 h cell viability MTS);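 further: Test-compound concentration that lowers the Cisplatin IC50 by a set fold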
Assay type: cell-based
Conditions: compound and Cisplatin added simultaneously, Cisplatin sensitization value
Summary of the method: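 Compound and cisplatin added together as a full matrix of 2-fold serial dilutions from a top final concentration of 10 μM; cells incubated 96 h at 37° C, 5% CO2. Viability then read by MTS after 1 h further incubation; sensitization value reported in μM bins.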

SMILES | Cisplatin Sensitization Assay
CN1CCN(c2c(NC(=O)c3c(N)nn4cc(F)cnc34)cncc2C2CC2)CC1 [I-N-5, 2-amino-N-(5-cyclopropyl-4-(4-methylpiperazin-1-yl)pyridin-3-yl)-6-fluoropyrazolo[1,5-a]pyrimidine-3-carboxamide] | ++ (Cisplatin sensitization value>0.02 μM but <0.2 μM)
Nc1nn2cc(F)cnc2c1C(=O)Nc1cnccc1-n1ccnc1 [I-N-7, N-(4-(1H-imidazol-1-yl)pyridin-3-yl)-2-amino-6-fluoropyrazolo[1,5-a]pyrimidine-3-carboxamide] | ++ (Cisplatin sensitization value>0.02 μM but <0.2 μM)
CNCCc1cnn(-c2ccncc2NC(=O)c2c(N)nn3cc(F)cnc23)c1 [I-N-8, 2-amino-6-fluoro-N-(4-(4-(2-(methylamino)ethyl)-1H-pyrazol-1-yl)pyridin-3-yl)pyrazolo[1,5-a]pyrimidine-3-carboxamide] | + (Cisplatin sensitization value>0.2 μM but <5 μM)
CN(C)CCc1cnn(-c2ccncc2NC(=O)c2c(N)nn3cc(F)cnc23)c1 [I-N-9, 2-amino-N-(4-(4-(2-(dimethylamino)ethyl)-1H-pyrazol-1-yl)pyridin-3-yl)-6-fluoropyrazolo[1,5-a]pyrimidine-3-carboxamide] | + (Cisplatin sensitization value>0.2 μM but <5 μM)
Nc1nn2cc(F)cnc2c1C(=O)Nc1cnccc1N1CCN([C@@H]2CCOC2)CC1 [I-N-10, (R)-2-amino-6-fluoro-N-(4-(4-(tetrahydrofuran-3-yl)piperazin-1-yl)pyridin-3-yl)pyrazolo[1,5-a]pyrimidine-3-carboxamide] | ++ (Cisplatin sensitization value>0.02 μM but <0.2 μM)
Nc1nn2cc(F)cnc2c1C(=O)Nc1cnccc1N1CCN(C2CCOCC2)CC1 [I-N-11, 2-amino-6-fluoro-N-(4-(4-(tetrahydro-2H-pyran-4-yl)piperazin-1-yl)pyridin-3-yl)pyrazolo[1,5-a]pyrimidine-3-carboxamide] | ++ (Cisplatin sensitization value>0.02 μM but <0.2 μM)
Nc1nn2cc(F)cnc2c1C(=O)Nc1cnccc1N1CCN([C@H]2CCOC2)CC1 [I-N-12, (S)-2-amino-6-fluoro-N-(4-(4-(tetrahydrofuran-3-yl)piperazin-1-yl)pyridin-3-yl)pyrazolo[1,5-a]pyrimidine-3-carboxamide] | +++ (Cisplatin sensitization value of <0.02 μM)
Nc1nn2cc(F)cnc2c1C(=O)Nc1cncc(F)c1N1CCN(C2COC2)CC1 [I-N-13, 2-amino-6-fluoro-N-(5-fluoro-4-(4-(oxetan-3-yl)piperazin-1-yl)pyridin-3-yl)pyrazolo[1,5-a]pyrimidine-3-carboxamide] | +++ (Cisplatin sensitization value of <0.02 μM)
CN1CCN(c2c(F)cncc2NC(=O)c2c(N)nn3cc(Cl)cnc23)CC1 [I-N-14, 2-amino-6-chloro-N-(5-fluoro-4-(4-methylpiperazin-1-yl)pyridin-3-yl)pyrazolo[1,5-a]pyrimidine-3-carboxamide] | +++ (Cisplatin sensitization value of <0.02 μM)
CN1CCN(c2c(F)cncc2NC(=O)c2c(N)nn3cc(F)cnc23)CC1 [I-N-15, 2-amino-6-fluoro-N-(5-fluoro-4-(4-methylpiperazin-1-yl)pyridin-3-yl)pyrazolo[1,5-a]pyrimidine-3-carboxamide] | +++ (Cisplatin sensitization value of <0.02 μM)
Cc1cncc(NC(=O)c2c(N)nn3cc(F)cnc23)c1N1CCN(C2COC2)CC1 [I-N-16, 2-amino-6-fluoro-N-(5-methyl-4-(4-(oxetan-3-yl)piperazin-1-yl)pyridin-3-yl)pyrazolo[1,5-a]pyrimidine-3-carboxamide] | +++ (Cisplatin sensitization value of <0.02 μM)
CCN1CCN(c2ccncc2NC(=O)c2c(N)nn3cc(F)cnc23)CC1 [I-N-17, 2-amino-N-(4-(4-ethylpiperazin-1-yl)pyridin-3-yl)-6-fluoropyrazolo[1,5-a]pyrimidine-3-carboxamide] | +++ (Cisplatin sensitization value of <0.02 μM)
Nc1nn2cc(F)cnc2c1C(=O)Nc1cnccc1N1CCN2CCC1CC2 [I-N-18, N-(4-(1,4-diazabicyclo[3.2.2]nonan-4-yl)pyridin-3-yl)-2-amino-6-fluoropyrazolo[1,5-a]pyrimidine-3-carboxamide] | ++ (Cisplatin sensitization value>0.02 μM but <0.2 μM)
Nc1nn2cc(F)cnc2c1C(=O)Nc1cnccc1N1CCN(CC(F)(F)F)CC1 [I-N-20, 2-amino-6-fluoro-N-(4-(4-(2,2,2-trifluoroethyl)piperazin-1-yl)pyridin-3-yl)pyrazolo[1,5-a]pyrimidine-3-carboxamide] | +++ (Cisplatin sensitization value of <0.02 μM)
Nc1nn2cc(F)cnc2c1C(=O)Nc1cnccc1N1CCN2CCC[C@H]2C1 [I-N-21, (S)-2-amino-6-fluoro-N-(4-(hexahydropyrrolo[1,2-a]pyrazin-2(1H)-yl)pyridin-3-yl)pyrazolo[1,5-a]pyrimidine-3-carboxamide] | +++ (Cisplatin sensitization value of <0.02 μM)
C[C@@H]1CN(C2COC2)CCN1c1ccncc1NC(=O)c1c(N)nn2cc(F)cnc12 [I-N-23, (R)-2-amino-6-fluoro-N-(4-(2-methyl-4-(oxetan-3-yl)piperazin-1-yl)pyridin-3-yl)pyrazolo[1,5-a]pyrimidine-3-carboxamide] | +++ (Cisplatin sensitization value of <0.02 μM)
C[C@H]1CN(C2COC2)CCN1c1ccncc1NC(=O)c1c(N)nn2cc(F)cnc12 [I-N-24, (S)-2-amino-6-fluoro-N-(4-(2-methyl-4-(oxetan-3-yl)piperazin-1-yl)pyridin-3-yl)pyrazolo[1,5-a]pyrimidine-3-carboxamide] | +++ (Cisplatin sensitization value of <0.02 μM)
Nc1nn2cc(F)cnc2c1C(=O)Nc1cnccc1-n1cccn1 [I-N-26, N-(4-(1H-pyrazol-1-yl)pyridin-3-yl)-2-amino-6-fluoropyrazolo[1,5-a]pyrimidine-3-carboxamide] | + (Cisplatin sensitization value>0.2 μM but <5 μM)
Nc1nn2cc(F)cnc2c1C(=O)Nc1cnccc1-n1cnc(C(F)(F)F)c1 [I-N-27, 2-amino-6-fluoro-N-(4-(4-(trifluoromethyl)-1H-imidazol-1-yl)pyridin-3-yl)pyrazolo[1,5-a]pyrimidine-3-carboxamide] | ++ (Cisplatin sensitization value>0.02 μM but <0.2 μM)
Cc1nccn1-c1ccncc1NC(=O)c1c(N)nn2cc(F)cnc12 [I-N-28, 2-amino-6-fluoro-N-(4-(2-methyl-1H-imidazol-1-yl)pyridin-3-yl)pyrazolo[1,5-a]pyrimidine-3-carboxamide] | +++ (Cisplatin sensitization value of <0.02 μM)
Nc1nn2cc(Cl)cnc2c1C(=O)Nc1cnccc1-n1ccnc1 [I-N-29, N-(4-(1H-imidazol-1-yl)pyridin-3-yl)-2-amino-6-chloropyrazolo[1,5-a]pyrimidine-3-carboxamide] | ++ (Cisplatin sensitization value>0.02 μM but <0.2 μM)
Cc1nc(C(F)(F)F)cn1-c1ccncc1NC(=O)c1c(N)nn2cc(F)cnc12 [I-N-30, 2-amino-6-fluoro-N-(4-(2-methyl-4-(trifluoromethyl)-1H-imidazol-1-yl)pyridin-3-yl)pyrazolo[1,5-a]pyrimidine-3-carboxamide] | ++ (Cisplatin sensitization value>0.02 μM but <0.2 μM)
Nc1nn2cc(F)cnc2c1C(=O)Nc1cnccc1N1CCN(C2COC2)C2CC21 (stereo not drawn) [I-N-31, 2-amino-6-fluoro-N-(4-(5-(oxetan-3-yl)-2,5-diazabicyclo[4.1.0]heptan-2-yl)pyridin-3-yl)pyrazolo[1,5-a]pyrimidine-3-carboxamide] | + (Cisplatin sensitization value>0.2 μM but <5 μM)
Nc1nn2cc(F)cnc2c1C(=O)Nc1cncc(C2CC2)c1N1CCN(C2COC2)CC1 [I-N-32, 2-amino-N-(5-cyclopropyl-4-(4-(oxetan-3-yl)piperazin-1-yl)pyridin-3-yl)-6-fluoropyrazolo[1,5-a]pyrimidine-3-carboxamide] | ++ (Cisplatin sensitization value>0.02 μM but <0.2 μM)
Nc1nn2cc(F)cnc2c1C(=O)Nc1cnccc1N1CCN(C2CC2)CC1 [I-N-33, 2-amino-N-(4-(4-cyclopropylpiperazin-1-yl)pyridin-3-yl)-6-fluoropyrazolo[1,5-a]pyrimidine-3-carboxamide] | + (Cisplatin sensitization value>0.2 μM but <5 μM)
CC(C)(C)N1CCN(c2ccncc2NC(=O)c2c(N)nn3cc(Cl)cnc23)CC1 [I-N-34, 2-amino-N-(4-(4-(tert-butyl)piperazin-1-yl)pyridin-3-yl)-6-chloropyrazolo[1,5-a]pyrimidine-3-carboxamide] | ++ (Cisplatin sensitization value>0.02 μM but <0.2 μM)
CN(C)[C@H]1CCN(c2ccncc2NC(=O)c2c(N)nn3cc(Cl)cnc23)C[C@@H]1O [I-N-35, 2-amino-6-chloro-N-(4-((3S,4S)-4-(dimethylamino)-3-hydroxypiperidin-1-yl)pyridin-3-yl)pyrazolo[1,5-a]pyrimidine-3-carboxamide] | + (Cisplatin sensitization value>0.2 μM but <5 μM)
CN(C)CC1(O)CCN(c2ccncc2NC(=O)c2c(N)nn3cc(Cl)cnc23)CC1 [I-N-36, 2-amino-6-chloro-N-(4-(4-((dimethylamino)methyl)-4-hydroxypiperidin-1-yl)pyridin-3-yl)pyrazolo[1,5-a]pyrimidine-3-carboxamide] | ++ (Cisplatin sensitization value>0.02 μM but <0.2 μM)
CN(C)C1CCN(c2ccncc2NC(=O)c2c(N)nn3cc(Cl)cnc23)CC1 [I-N-37, 2-amino-6-chloro-N-(4-(4-(dimethylamino)piperidin-1-yl)pyridin-3-yl)pyrazolo[1,5-a]pyrimidine-3-carboxamide] | ++ (Cisplatin sensitization value>0.02 μM but <0.2 μM)
Nc1nn2cc(F)cnc2c1C(=O)Nc1cncc(Cl)c1N1CCN2CCN(C3COC3)CC2C1 (stereo not drawn) [I-N-38, 2-amino-N-(5-chloro-4-(8-(oxetan-3-yl)hexahydro-1H-pyrazino[1,2-a]pyrazin-2(6H)-yl)pyridin-3-yl)-6-fluoropyrazolo[1,5-a]pyrimidine-3-carboxamide] | ++ (Cisplatin sensitization value>0.02 μM but <0.2 μM)

— patent publication US11370798B2 (Vertex Pharmaceuticals Incorporated, priority 2012, dated 2022)
